The results in this text go back to US20240066136A1, “MODIFIED PROTEINS AND PROTEIN DEGRADERS” (Cullgen (Shanghai), Inc., priority 2020, published 2024).

pIC50, pKd: −log10 of the molar value. Like-named read-outs stand apart in the source and are kept apart here. Ends that are not written are not given here.

The target in one experiment is CDK4 (Homo sapiens (Human), UniProt P11802). The experiment is described as follows: Immunoblot of CDK4 protein in Calu-1 cells. The conditions noted are these: indicated concentrations, 16 hours, immunoblot. Type of experiment: cell-based. How it is done:
Additional heterobifunctional compounds were designed and tested for their ability to target and degrade another two target proteins, CDK4 and CDK6. Calu-1 cells that express CDK4/6 proteins were treated with heterobifunctional compounds disclosed herein (D-44 to D-49) at indicated concentrations for 16 hours. Cells were collected, lysed and subject to immunoblotting using an antibody specific to CDK4, CDK6 or phosphorylated Rb proteins. Tubulin was included as the loading control. DMSO treatment was used as the negative control. […] In addition, Calu-1 cells were treated with 1 μM D-48 or D-49 for an indicated period of time. Subsequently, changes in CDK4 and CDK6 protein levels were measured by immunoblotting. […] These experiments highlight the ability of DDB1 binder derived heterobifunctional compounds to degrade multiple different target proteins, including but not limited to epigenetic target proteins, such as CBP and p300, and kinases, such as CDK4 and CDK6.
(In western blotting, separated proteins are transferred to a membrane and probed.)

A further experiment deals with Human DDB1 (Homo sapiens (Human), UniProt Q16531). The experiment is described as follows: Surface plasmon resonance (SPR) binding assay to immobilized His-DDB1. An outline of the steps: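 Baculovirus-expressed His-DDB1 (High5 cells) amine-coupled to 11,000–13,000 RU on a CM5 chip; compounds injected in multi-cycle format without regeneration at 25° C in HBS-EP pH 7.4 (120 s association/dissociation). Double-referenced, solvent-corrected data fit to steady-state affinity model for KD.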
A general note: SPR reads the build-up and loss of mass on a sensor chip optically.

The target of experiment [1] is T1, P300 (Homo sapiens (Human), UniProt Q09472). The experiment in a line: Immunoblot of P300 protein in LNCaP cells after compound treatment. Type of experiment: cell-based. The procedure:
(§1) Experiments were performed to see if heterobifunctional compounds as described herein could degrade target proteins. Specific exemplary heterobifunctional compounds were characterized in LNCaP and Calu-1 cells. LNCaP cells that express P300/CBP proteins were treated with heterobifunctional compounds disclosed herein (D-2, D-13, or D-7) at indicated concentrations for 8 hours. Cells were collected, lysed and subject to immunoblotting using an antibody specific to P300 or CBP proteins. Vinculin was included as the loading control. DMSO treatment was used as the negative control. […] In addition, LNCaP cells were treated with 500 nM of D-2, or D-13 for indicated period of time. Subsequently, changes in P300 and CBP protein levels were measured by immunoblotting.

The target of the next experiment is CBP (Homo sapiens (Human), UniProt Q92793). The experiment in a line: Immunoblot of CBP protein in LNCaP cells after compound treatment. Type of experiment: cell-based. How it is done:
as §1

Experiment [2] deals with T1, P300. The experiment is described as follows: Immunoblot of P300 in Calu-1 cells with co-administered proteasome, neddylation or DDB1-ligand competitor. It counts as cell-based. The source says: The heterobifunctional compound-mediated p300 and CBP degradation was dependent on the ubiquitin-proteasome system and cullin E3 ligase. […] The binding with DDB1 also played a role in the heterobifunctional compounds ability to induce degradation of P300 and CBP proteins.

In the next experiment the test system is A375. The experiment is described as follows: Cell viability assay (CellTiter-Glo). Type of experiment: cell-based. To be noted: Homo sapiens, A-375, 120 h; A375, 5 days. How it is done: (§2) A variety of cancer cell lines were treated with Palbociclib or selected heterobifunctional compounds for 5 days at indicated concentrations in FIG. 12.
(§3) Cell Culture. LNCaP (clone FGC), Calu-1, MDA-MB-468, MDA-MB-453, NCI-H358, HCC1937, BT-549, HCT116, A375, SK-MEL-28, SK-N-SH, MIA PaCa-2, HS 578T, HCC827, MIA PaCa-2, and other cells were cultured at 37° C. with 5% CO2 in DMEM or RPMI 1640 Medium supplemented with 10% fetal bovine serum. Cells were authenticated using the short tandem repeat (STR) assays. Mycoplasma test results were negative.
(§4) Cell viability assay. Cells were seeded at a density of 5000 cells per well in 96-well assay plates and treated with test compounds following a 11-point 3-fold serial dilution for 3-5 days. Three days later, cell viability was determined using the CellTiter-Glo Assay Kit according to the manufacturer's instructions. The dose-response curves were determined and IC50 values were calculated using the GraphPad Prism software following a nonlinear regression (least squares fit) method.

A further experiment deals with BT-549. The experiment is described as follows: Cell viability assay (CellTiter-Glo). It counts as cell-based. To be noted: Homo sapiens, 120 h; BT-549, 5 days. The procedure:
as §2, §3, §4

A further experiment concerns HCC1937. The experiment in a line: Cell viability assay (CellTiter-Glo). The conditions noted are these: Homo sapiens, 120 h; HCC1937, 5 days. Type of experiment: cell-based. The procedure:
as §2, §3, §4
On the technique in general: Cellular ATP, detected with luciferase, serves as a proxy for viable cell number.

The next experiment concerns HCC827. The experiment in a line: Cell viability assay (CellTiter-Glo). Type of experiment: cell-based. The conditions noted are these: Homo sapiens, 120 h; HCC827, 5 days. The procedure: as §2, §3, §4
For another experiment, the system named is HCT116. The experiment in a line: Cell viability assay (CellTiter-Glo). It counts as cell-based. To be noted: Homo sapiens, HCT-116, 120 h; HCT116, 5 days. The procedure: as §2, §3, §4
The test system of another experiment is Hs 578T. The experiment in a line: Cell viability assay (CellTiter-Glo). Type of experiment: cell-based. To be noted: Homo sapiens, 120 h, 5 days. How it is done:
as §2, §3, §4

A further experiment deals with MDAMB-468. The experiment in a line: Cell viability assay (CellTiter-Glo). Type of experiment: cell-based. To be noted: Homo sapiens, MDA-MB-468, 120 h; MDAMB-468, 5 days. How it is done:
as §2, §3, §4

The subject of the next experiment is NCI-H358. The experiment in a line: Cell viability assay (CellTiter-Glo). It counts as cell-based. The conditions noted are these: Homo sapiens, 120 h; NCI-H358, 5 days. How it is done: as §2, §3, §4
The next experiment concerns SK-MEL-28. The experiment is described as follows: Cell viability assay (CellTiter-Glo). The conditions noted are these: Homo sapiens, 120 h; SK-MEL-28, 5 days. Type of experiment: cell-based. The procedure:
as §2, §3, §4

The subject of another experiment is SK-N-SH. The experiment in a line: Cell viability assay (CellTiter-Glo). To be noted: Homo sapiens, 120 h, 5 days. Type of experiment: cell-based. How it is done:
as §2, §3, §4

The test system of a further experiment is Calu-1. The experiment in a line: Cell viability assay (CellTiter-Glo). Type of experiment: cell-based. To be noted: Homo sapiens, 120 h; Calu-1, 5 days. How it is done:
(§5) Calu-1, MDA-MB-453 or MIA PaCa-2 cancer cells were treated with Palbociclib or selected heterobifunctional compounds for 5 days at indicated concentrations following a 2-fold serial dilution.
as §2, §3, §4

Another experiment has as its system MDAMB-453. The experiment is described as follows: Cell viability assay (CellTiter-Glo). It counts as cell-based. To be noted: Homo sapiens, MDA-MB-453, 120 h; MDAMB-453, 5 days. How it is done:
as §5, §2, §3, §4

The test system of the next experiment is MIA PaCa-2. The experiment is described as follows: Cell viability assay (CellTiter-Glo). Type of experiment: cell-based. To be noted: Homo sapiens, 120 h; MIA PaCa-2, 5 days. How it is done: as §5, §2, §3, §4
Setting [3] is: SPR, DDB1 binding moieties with linkers and/or target protein binding moiety, read-out: Binding (Kd).
Setting [4] is: indicated concentrations, 8 hours, immunoblot.

T1 sequence (Q09472 whole entry): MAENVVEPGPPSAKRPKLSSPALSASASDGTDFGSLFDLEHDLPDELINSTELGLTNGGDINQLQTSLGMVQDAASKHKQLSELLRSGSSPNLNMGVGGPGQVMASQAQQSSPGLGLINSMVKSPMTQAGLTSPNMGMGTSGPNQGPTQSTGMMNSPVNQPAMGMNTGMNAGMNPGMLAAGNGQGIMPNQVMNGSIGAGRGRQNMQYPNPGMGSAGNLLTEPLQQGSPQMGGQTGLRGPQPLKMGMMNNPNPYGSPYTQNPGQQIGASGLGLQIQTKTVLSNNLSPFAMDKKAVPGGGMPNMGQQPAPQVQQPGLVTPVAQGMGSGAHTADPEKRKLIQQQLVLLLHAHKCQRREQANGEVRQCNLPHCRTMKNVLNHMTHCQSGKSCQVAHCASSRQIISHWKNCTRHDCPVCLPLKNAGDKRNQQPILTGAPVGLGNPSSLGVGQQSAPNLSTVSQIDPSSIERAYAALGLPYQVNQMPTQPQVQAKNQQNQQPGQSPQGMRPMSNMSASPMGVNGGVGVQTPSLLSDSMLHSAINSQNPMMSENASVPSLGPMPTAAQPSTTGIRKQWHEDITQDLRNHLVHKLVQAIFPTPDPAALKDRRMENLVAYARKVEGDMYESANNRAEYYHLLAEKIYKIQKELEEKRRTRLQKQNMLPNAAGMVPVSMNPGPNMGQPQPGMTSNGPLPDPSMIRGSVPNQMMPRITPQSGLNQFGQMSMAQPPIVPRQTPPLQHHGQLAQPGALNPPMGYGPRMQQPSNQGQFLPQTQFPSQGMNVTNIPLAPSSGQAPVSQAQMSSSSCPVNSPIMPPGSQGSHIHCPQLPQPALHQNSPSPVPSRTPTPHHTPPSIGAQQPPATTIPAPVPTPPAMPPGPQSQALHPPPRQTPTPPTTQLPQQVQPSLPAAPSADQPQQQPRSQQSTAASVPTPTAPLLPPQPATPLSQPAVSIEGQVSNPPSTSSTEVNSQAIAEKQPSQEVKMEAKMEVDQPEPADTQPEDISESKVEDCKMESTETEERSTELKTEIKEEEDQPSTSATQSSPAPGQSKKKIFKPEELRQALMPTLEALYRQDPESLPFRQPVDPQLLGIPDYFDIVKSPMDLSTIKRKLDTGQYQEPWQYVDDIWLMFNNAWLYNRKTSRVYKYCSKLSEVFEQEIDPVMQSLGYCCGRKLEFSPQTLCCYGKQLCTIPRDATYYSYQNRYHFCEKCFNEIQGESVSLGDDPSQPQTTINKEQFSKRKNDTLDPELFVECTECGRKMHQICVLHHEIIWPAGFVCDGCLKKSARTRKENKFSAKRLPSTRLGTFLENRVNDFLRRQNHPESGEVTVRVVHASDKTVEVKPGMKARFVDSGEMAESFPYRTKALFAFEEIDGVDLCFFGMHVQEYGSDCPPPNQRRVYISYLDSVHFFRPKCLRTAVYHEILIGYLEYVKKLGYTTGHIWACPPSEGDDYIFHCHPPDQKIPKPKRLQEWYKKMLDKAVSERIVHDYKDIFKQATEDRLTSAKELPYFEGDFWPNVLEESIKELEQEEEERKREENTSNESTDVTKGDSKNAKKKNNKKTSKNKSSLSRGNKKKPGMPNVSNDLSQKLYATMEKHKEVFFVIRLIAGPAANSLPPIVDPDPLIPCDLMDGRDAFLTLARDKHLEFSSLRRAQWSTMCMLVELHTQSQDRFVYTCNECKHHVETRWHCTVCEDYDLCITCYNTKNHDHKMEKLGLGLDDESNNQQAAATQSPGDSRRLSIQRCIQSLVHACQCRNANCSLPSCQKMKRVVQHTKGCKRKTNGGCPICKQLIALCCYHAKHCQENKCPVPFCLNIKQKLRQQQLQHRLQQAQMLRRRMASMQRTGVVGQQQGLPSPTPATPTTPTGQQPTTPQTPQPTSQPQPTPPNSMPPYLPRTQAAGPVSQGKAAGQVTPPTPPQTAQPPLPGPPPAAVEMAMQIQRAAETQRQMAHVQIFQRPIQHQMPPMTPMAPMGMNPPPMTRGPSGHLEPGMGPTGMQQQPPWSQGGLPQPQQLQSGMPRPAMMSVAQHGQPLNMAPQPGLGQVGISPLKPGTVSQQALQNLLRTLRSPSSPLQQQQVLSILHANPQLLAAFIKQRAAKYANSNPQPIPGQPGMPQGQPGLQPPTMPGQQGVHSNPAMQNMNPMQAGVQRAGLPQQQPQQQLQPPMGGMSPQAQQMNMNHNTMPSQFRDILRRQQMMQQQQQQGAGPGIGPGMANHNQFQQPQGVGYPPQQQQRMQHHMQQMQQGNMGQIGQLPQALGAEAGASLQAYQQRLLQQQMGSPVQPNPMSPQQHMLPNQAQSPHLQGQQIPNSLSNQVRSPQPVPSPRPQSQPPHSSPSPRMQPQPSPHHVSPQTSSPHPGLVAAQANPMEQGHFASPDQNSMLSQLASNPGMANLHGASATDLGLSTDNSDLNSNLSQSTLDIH
Chain of Human DDB1 (Q16531 whole entry): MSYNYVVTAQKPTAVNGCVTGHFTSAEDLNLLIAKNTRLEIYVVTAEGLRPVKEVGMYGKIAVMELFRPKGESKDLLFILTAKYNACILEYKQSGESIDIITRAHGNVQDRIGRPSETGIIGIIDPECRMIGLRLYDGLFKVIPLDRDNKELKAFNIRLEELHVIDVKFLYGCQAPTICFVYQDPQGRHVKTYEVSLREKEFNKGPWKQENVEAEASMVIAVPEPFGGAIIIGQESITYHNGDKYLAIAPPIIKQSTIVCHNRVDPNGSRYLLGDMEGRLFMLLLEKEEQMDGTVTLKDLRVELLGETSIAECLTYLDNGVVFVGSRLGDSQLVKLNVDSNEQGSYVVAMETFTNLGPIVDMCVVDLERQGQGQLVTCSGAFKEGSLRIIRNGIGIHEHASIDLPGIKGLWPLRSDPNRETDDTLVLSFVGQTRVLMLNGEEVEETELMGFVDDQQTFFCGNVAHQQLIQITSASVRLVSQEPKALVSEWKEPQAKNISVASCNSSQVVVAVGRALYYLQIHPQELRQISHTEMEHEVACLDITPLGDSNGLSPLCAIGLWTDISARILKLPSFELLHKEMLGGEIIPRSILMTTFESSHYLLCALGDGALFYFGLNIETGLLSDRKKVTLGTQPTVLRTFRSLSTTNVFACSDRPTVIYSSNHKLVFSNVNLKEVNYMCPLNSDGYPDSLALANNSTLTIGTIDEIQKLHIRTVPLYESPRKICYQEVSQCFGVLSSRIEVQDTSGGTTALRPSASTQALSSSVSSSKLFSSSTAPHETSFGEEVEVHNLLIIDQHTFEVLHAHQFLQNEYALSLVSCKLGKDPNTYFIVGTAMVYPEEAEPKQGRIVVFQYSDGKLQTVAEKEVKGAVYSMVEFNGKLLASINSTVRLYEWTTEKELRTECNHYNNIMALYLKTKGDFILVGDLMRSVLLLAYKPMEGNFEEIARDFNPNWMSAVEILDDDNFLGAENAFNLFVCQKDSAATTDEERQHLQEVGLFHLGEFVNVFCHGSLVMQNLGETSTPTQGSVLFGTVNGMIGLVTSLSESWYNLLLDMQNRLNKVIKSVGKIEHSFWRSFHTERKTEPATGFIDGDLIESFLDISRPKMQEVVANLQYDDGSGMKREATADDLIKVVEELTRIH
Chain of CDK4 (P11802 whole entry): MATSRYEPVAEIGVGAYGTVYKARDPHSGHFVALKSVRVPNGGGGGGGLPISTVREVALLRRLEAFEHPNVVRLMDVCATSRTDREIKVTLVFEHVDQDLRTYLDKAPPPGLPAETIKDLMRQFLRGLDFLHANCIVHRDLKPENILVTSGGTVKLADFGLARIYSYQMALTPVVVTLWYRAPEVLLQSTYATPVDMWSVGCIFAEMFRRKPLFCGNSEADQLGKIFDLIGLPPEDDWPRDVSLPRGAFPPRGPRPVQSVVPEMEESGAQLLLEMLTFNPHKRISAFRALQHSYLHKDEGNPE

What is called pKd is −log10 of the Kd, conventionally taken in molar units. Turning to `CC(=O)Nc1cc(NCCCCN)ccc1C(=O)Nc1nc(C)c([N+](=O)[O-])s1` [BL-11, 2-Acetamido-4-((4-aminobutyl)amino)-N-(4-methyl-5-nitrothiazol-2-yl)benzamide], the CDK4 protein levels result at CDK4 was “didn't have a significant effect”. Besides, the pKd at Human DDB1 (setting [3]) is 4.00 to 4.70.

Turning to `CC(=O)Nc1cc(NCCCCNC(=O)CN2CCC(n3nc(N4CCCc5cc(-c6cnn(C)c6)c(C(F)F)cc54)c4c3CCN(C(C)=O)C4)CC2)ccc1C(=O)Nc1ccc([N+](=O)[O-])s1` [D-13, 2-Acetamido-4-((4-(2-(4-(5-acetyl-3-(7-(difluoromethyl)-6-(1-methyl-1H-pyrazol-4-yl)-3,4-dihydroquinolin-1 (2H)-yl)-4,5,6,7-tetrahydro-1H-pyrazolo[4,3-c]pyridin-1-yl)piperidin-1-yl)acetamido)butyl)amino)-N-(5-nitrothiophen-2-yl)benzamide], the “time at which significant degradation of P300 was detected” value at P300 [1] (500 nM, time course) was in the range of 2 to 4 h. The P300 protein levels result at P300 [1] (setting [4]) is on record as “significantly decreased in a concentration-dependent manner”. Further, on CBP (500 nM, time course), the “time at which significant degradation of CBP was detected” value was 2 to 4 h. Besides, the CBP protein levels entry at CBP (setting [4]) is reported as “significantly decreased in a concentration-dependent manner”. Besides, on P300 [2], the “compound-induced degradation under co-administration of MG-132 or bortezomib (BTZ), or MLN4924” value was “compromised” and the “compound-mediated degradation under co-administration with excess DDB1 ligand BL-11” value is reported as “partially neutralized”. Moreover, the pKd at Human DDB1 (setting [3]) is 4.00 to 4.70.

For the compound `CC(=O)Nc1cc(NCCOCCOCCOCCOCCNC(=O)C[C@@H]2N=C(c3ccc(Cl)cc3)c3c(sc(C)c3C)-n3c(C)nnc32)ccc1C(=O)Nc1nc(C)c([N+](=O)[O-])s1` [D-35, (S)-2-Acetamido-4-((1-(4-(4-chlorophenyl)-2,3,9-trimethyl-6H-thieno[3,2-f][1,2,4]triazolo[4,3-a][1,4]diazepin-6-yl)-2-oxo-6,9,12,15-tetraoxa-3-azaheptadecan-17-yl)amino)-N-(4-methyl-5-nitrothiazol-2-yl)benzamide], on Human DDB1 (setting [3]), the pKd is 4.00 to 4.70.

With `CC(=O)Nc1cc(NCCOCCOCCOCCOCCOCCOCCNC(=O)C[C@@H]2N=C(c3ccc(Cl)cc3)c3c(sc(C)c3C)-n3c(C)nnc32)ccc1C(=O)Nc1nc(C)c([N+](=O)[O-])s1` [D-37, (S)-2-Acetamido-4-((1-(4-(4-chlorophenyl)-2,3,9-trimethyl-6H-thieno[3,2-f][1,2,4]triazolo[4,3-a][1,4]diazepin-6-yl)-2-oxo-6,9,12,15,18,21-hexaoxa-3-azatricosan-23-yl)amino)-N-(4-methyl-5-nitrothiazol-2-yl)benzamide], at Human DDB1 (setting [3]), the pKd was 4.00 to 4.70.

Take `CC(=O)Nc1cc(NCCOCCOCCNC(=O)CN2CCN(c3ccc(Nc4ncc5c(C)c(C(C)=O)c(=O)n(C6CCCC6)c5n4)nc3)CC2)ccc1C(=O)Nc1nc(C)c([N+](=O)[O-])s1` [D-45, 2-Acetamido-4-((2-(2-(2-(2-(4-(6-((6-acetyl-8-cyclopentyl-5-methyl-7-oxo-7,8-dihydropyrido[2,3-d]pyrimidin-2-yl)amino)pyridin-3-yl)piperazin-1-yl)acetamido)ethoxy)ethoxy)ethyl)amino)-N-(4-methyl-5-nitrothiazol-2-yl)benzamide]: the pKd at Human DDB1 (setting [3]) was greater than 4.70.

For `CC(=O)Nc1cc(NCCOCCOCCOCCNC(=O)CN2CCN(c3ccc(Nc4ncc5c(C)c(C(C)=O)c(=O)n(C6CCCC6)c5n4)nc3)CC2)ccc1C(=O)Nc1nc(C)c([N+](=O)[O-])s1` [D-46, 2-Acetamido-4-((1-(4-(6-((6-acetyl-8-cyclopentyl-5-methyl-7-oxo-7,8-dihydropyrido[2,3-d]pyrimidin-2-yl)amino)pyridin-3-yl)piperazin-1-yl)-2-oxo-6,9,12-trioxa-3-azatetradecan-14-yl)amino)-N-(4-methyl-5-nitrothiazol-2-yl)benzamide], the pKd at Human DDB1 (setting [3]) is greater than 4.70.

With `CC(=O)Nc1cc(NCCOCCOCCOCCOCCNC(=O)CN2CCN(c3ccc(Nc4ncc5c(C)c(C(C)=O)c(=O)n(C6CCCC6)c5n4)nc3)CC2)ccc1C(=O)Nc1nc(C)c([N+](=O)[O-])s1` [D-47, 2-Acetamido-4-((1-(4-(6-((6-acetyl-8-cyclopentyl-5-methyl-7-oxo-7,8-dihydropyrido[2,3-d]pyrimidin-2-yl)amino)pyridin-3-yl)piperazin-1-yl)-2-oxo-6,9,12,15-tetraoxa-3-azaheptadecan-17-yl)amino)-N-(4-methyl-5-nitrothiazol-2-yl)benzamide], at Human DDB1 (setting [3]), the pKd was greater than 4.70.

One may read the pIC50 as the IC50 on a negative log10 scale, so that one unit is a factor of ten. Read a high pIC50 as a low IC50. Turning to `CC(=O)c1c(C)c2cnc(Nc3ccc(N4CCNCC4)cn3)nc2n(C2CCCC2)c1=O` [palbociclib, reference compound], the CDK4 protein levels entry at CDK4 is “didn't have a significant effect”. Besides, the pIC50 in the experiment with A375 is 5.00 to 5.70; in the experiment with BT-549, less than 5.00; with HCC1937, less than 5.00; with HCC827, less than 5.00; in the experiment on HCT116, less than 5.00; in the experiment on Hs 578T, 5.00 to 5.70. The pIC50 in the experiment on MDAMB-468 is less than 5.00; with NCI-H358, less than 5.00; with SK-MEL-28, 5.00 to 5.70; with SK-N-SH, less than 5.00; in the experiment with Calu-1, less than 5.00; in the experiment with MDAMB-453, less than 5.00. In the experiment on MIA PaCa-2, this compound gave a pIC50 of 5.00 to 5.70.

Regarding SRLNRRASF [Peptide 7], the negative logarithm of the Kd (pKd) at Human DDB1 was 4.00 to 4.70.
